Measurements reported in patent publication US20230111310A1, “CARBOXYLIC ACID DERIVATIVE-SUBSTITUTED IMINO ARYL COMPOUND, PREPARATION METHOD THEREFOR, HERBICIDAL COMPOSITION AND USE THEREOF” (Qingdao Kingagroot Chemical Compound Co., Ltd., priority 2020, published 2023).

Tests used:
Experiment in all cases: Weeding effect in post-emergence stage
Type in all cases: in vivo
Setaria viridis = conditions: for Weeding effect in post-emergence stage, Setaria viridis: level of fresh weight growth control rate; for Weeding effect in post-emergence stage, Setaria viridis (level): fresh weight control rate level
Outline: (§1)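 Post-emergence spray tower; 2-3 leaf plants (2 wk after sowing, soil pots, greenhouse). Formulation: acetone, Tween 80, methyl oleate EC 1.5 liter/ha as synergist, water. Rates 500–7.5 g/ha. Growth control rate read at 3 wk; n=3, averaged.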

Abutilon theophrasti = conditions: for Weeding effect in post-emergence stage, Abutilon theophrasti: level of fresh weight growth control rate; for Weeding effect in post-emergence stage, Abutilon theophrasti (level): fresh weight control rate level
Outline: as §1

Digitaria sanguinalis = conditions: for Weeding effect in post-emergence stage, Digitaria sanguinalis: level of fresh weight growth control rate; for Weeding effect in post-emergence stage, Digitaria sanguinalis (level): fresh weight control rate level
Outline: as §1

Eleusine indica = conditions: for Weeding effect in post-emergence stage, Eleusine indica: level of fresh weight growth control rate; for Weeding effect in post-emergence stage, Eleusine indica (level): fresh weight control rate level
Outline: as §1

Alopecurus japonicus = conditions: for Weeding effect in post-emergence stage, Alopecurus japonicus: level of fresh weight growth control rate; for Weeding effect in post-emergence stage, Alopecurus japonicus (level): fresh weight control rate level
Outline: as §1

Echinochloa crusgalli = conditions: for Weeding effect in post-emergence stage, Echinochloa crusgalli: level of fresh weight growth control rate; for Weeding effect in post-emergence stage, Echinochloa crusgalli (level): fresh weight control rate level
Outline: as §1

| SMILES | Weeding effect in post-emergence stage, Setaria viridis (Setaria viridis; Dose 15 g/ha) | Weeding effect in post-emergence stage, Abutilon theophrasti (Abutilon theophrasti; Dose 15 g/ha) | Weeding effect in post-emergence stage, Digitaria sanguinalis (Digitaria sanguinalis; Dose 15 g/ha) | Weeding effect in post-emergence stage, Eleusine indica (Eleusine indica; Dose 15 g/ha) | Weeding effect in post-emergence stage, Alopecurus japonicus (Alopecurus japonicus; Dose 15 g/ha) | Weeding effect in post-emergence stage, Echinochloa crusgalli (Echinochloa crusgalli; Dose 15 g/ha) | Weeding effect in post-emergence stage, Setaria viridis (level) (Setaria viridis; Dose 15 g/ha) | Weeding effect in post-emergence stage, Abutilon theophrasti (level) (Abutilon theophrasti; Dose 15 g/ha) | Weeding effect in post-emergence stage, Digitaria sanguinalis (level) (Digitaria sanguinalis; Dose 15 g/ha) | Weeding effect in post-emergence stage, Eleusine indica (level) (Eleusine indica; Dose 15 g/ha) | Weeding effect in post-emergence stage, Alopecurus japonicus (level) (Alopecurus japonicus; Dose 15 g/ha) | Weeding effect in post-emergence stage, Echinochloa crusgalli (level) (Echinochloa crusgalli; Dose 15 g/ha) | further results |
| --- | --- | --- | --- | --- | --- | --- | --- | --- | --- | --- | --- | --- | --- |
| COC(=O)C(C)O/N=C/c1cc(-n2c(=S)cc(C(F)(F)F)n(C)c2=S)c(F)cc1Cl (racemic) [Compound 351] | – | – | – | – | – | – | – | – | – | – | – | – | Weeding effect in post-emergence stage, Setaria viridis (Setaria viridis; Dose 60 g/ha): 5 (Level 5: growth control rate is above 85%); Weeding effect in post-emergence stage, Abutilon theophrasti (Abutilon theophrasti; Dose 60 g/ha): 5 (Level 5: growth control rate is above 85%); Weeding effect in post-emergence stage, Digitaria sanguinalis (Digitaria sanguinalis; Dose 60 g/ha): 5 (Level 5: growth control rate is above 85%); Weeding effect in post-emergence stage, Eleusine indica (Eleusine indica; Dose 60 g/ha): 5 (Level 5: growth control rate is above 85%); Weeding effect in post-emergence stage, Alopecurus japonicus (Alopecurus japonicus; Dose 60 g/ha): 5 (Level 5: growth control rate is above 85%); Weeding effect in post-emergence stage, Echinochloa crusgalli (Echinochloa crusgalli; Dose 60 g/ha): 5 (Level 5: growth control rate is above 85%) |
| CCCCOC(=O)C(C)O/N=C/c1cc(-n2c(=O)cc(C(F)(F)F)n(C)c2=O)c(F)cc1Cl (racemic) [Compound 200] | 5 (Level 5: growth control rate is above 85%) | 5 (Level 5: growth control rate is above 85%) | 5 (Level 5: growth control rate is above 85%) | 5 (Level 5: growth control rate is above 85%) | 5 (Level 5: growth control rate is above 85%) | 5 (Level 5: growth control rate is above 85%) | – | – | – | – | – | – | – |
| CC(=NOC(=O)C(C)ON=Cc1cc(-n2c(=O)cc(C(F)(F)F)n(C)c2=O)c(F)cc1Cl)C(C)(C)C (stereo not drawn) [Compound 449] | – | – | – | – | – | – | 5 (Level 5: growth control rate is above 85%) | 5 (Level 5: growth control rate is above 85%) | 5 (Level 5: growth control rate is above 85%) | 5 (Level 5: growth control rate is above 85%) | 5 (Level 5: growth control rate is above 85%) | 5 (Level 5: growth control rate is above 85%) | – |
| Cc1cc(C)n(C(=O)C(C)O/N=C/c2cc(-n3c(=O)cc(C(F)(F)F)n(C)c3=O)c(F)cc2Cl)n1 (stereo not drawn) [Compound 424] | – | – | – | – | – | – | – | – | – | – | – | – | Weeding effect in post-emergence stage, Setaria viridis (level) (Setaria viridis; Dose 30 g/ha): 5 (Level 5: growth control rate is above 85%); Weeding effect in post-emergence stage, Abutilon theophrasti (level) (Abutilon theophrasti; Dose 30 g/ha): 5 (Level 5: growth control rate is above 85%); Weeding effect in post-emergence stage, Digitaria sanguinalis (level) (Digitaria sanguinalis; Dose 30 g/ha): 5 (Level 5: growth control rate is above 85%); Weeding effect in post-emergence stage, Eleusine indica (level) (Eleusine indica; Dose 30 g/ha): 5 (Level 5: growth control rate is above 85%); Weeding effect in post-emergence stage, Alopecurus japonicus (level) (Alopecurus japonicus; Dose 30 g/ha): 5 (Level 5: growth control rate is above 85%); Weeding effect in post-emergence stage, Echinochloa crusgalli (level) (Echinochloa crusgalli; Dose 30 g/ha): 5 (Level 5: growth control rate is above 85%) |
| CC(O/N=C/c1cc(-n2c(=O)cc(C(F)(F)F)n(C)c2=O)c(F)cc1Cl)C(=O)OCCCC#N (stereo not drawn) [Compound 446] | – | – | – | – | – | – | 5 (Level 5: growth control rate is above 85%) | 5 (Level 5: growth control rate is above 85%) | 5 (Level 5: growth control rate is above 85%) | 5 (Level 5: growth control rate is above 85%) | 5 (Level 5: growth control rate is above 85%) | 5 (Level 5: growth control rate is above 85%) | – |
| CC(Cl)=CCOC(=O)C(C)ON=Cc1cc(-n2c(=O)cc(C(F)(F)F)n(C)c2=O)c(F)cc1Cl (stereo not drawn) [Compound 500] | – | – | – | – | – | – | 5 (Level 5: growth control rate is above 85%) | 5 (Level 5: growth control rate is above 85%) | 5 (Level 5: growth control rate is above 85%) | 5 (Level 5: growth control rate is above 85%) | 5 (Level 5: growth control rate is above 85%) | 5 (Level 5: growth control rate is above 85%) | – |
| CC(C)OC(=O)C(C)N(C)N=Cc1cc(-n2c(=O)n(C)c(=S)n(C)c2=O)c(F)cc1Cl (stereo not drawn) [Compound 885] | – | – | – | – | – | – | – | – | – | – | – | – | Weeding effect in post-emergence stage, Setaria viridis (level) (Setaria viridis; Dose 30 g/ha): 5 (Level 5: growth control rate is above 85%); Weeding effect in post-emergence stage, Abutilon theophrasti (level) (Abutilon theophrasti; Dose 30 g/ha): 5 (Level 5: growth control rate is above 85%); Weeding effect in post-emergence stage, Digitaria sanguinalis (level) (Digitaria sanguinalis; Dose 30 g/ha): 5 (Level 5: growth control rate is above 85%); Weeding effect in post-emergence stage, Eleusine indica (level) (Eleusine indica; Dose 30 g/ha): 5 (Level 5: growth control rate is above 85%); Weeding effect in post-emergence stage, Alopecurus japonicus (level) (Alopecurus japonicus; Dose 30 g/ha): 5 (Level 5: growth control rate is above 85%); Weeding effect in post-emergence stage, Echinochloa crusgalli (level) (Echinochloa crusgalli; Dose 30 g/ha): 5 (Level 5: growth control rate is above 85%) |
| CCOC(=O)[C@@H](C)O/N=C/c1cc(-n2c(=O)n(C)c(=S)n(C)c2=O)c(F)cc1Br [84(R)] | 5 (Level 5: growth control rate is above 85%) | 5 (Level 5: growth control rate is above 85%) | 4 (Level 4: growth control rate is greater than or equal to 60% and less than 85%) | 5 (Level 5: growth control rate is above 85%) | 4 (Level 4: growth control rate is greater than or equal to 60% and less than 85%) | 5 (Level 5: growth control rate is above 85%) | – | – | – | – | – | – | – |
| CCN(CC)C(=O)C(C)ON=Cc1cc(-n2c(=O)cc(C(F)(F)F)n(C)c2=O)c(F)cc1Cl (stereo not drawn) [Compound 502] | – | – | – | – | – | – | 5 (Level 5: growth control rate is above 85%) | 5 (Level 5: growth control rate is above 85%) | 5 (Level 5: growth control rate is above 85%) | 5 (Level 5: growth control rate is above 85%) | 5 (Level 5: growth control rate is above 85%) | 5 (Level 5: growth control rate is above 85%) | – |
| COCCOC(=O)C(C)O/N=C/c1cc(-n2c(=O)n(C)c(=S)n(C)c2=O)c(F)cc1Cl (racemic) [Compound 14] | 5 (Level 5: growth control rate is above 85%) | 5 (Level 5: growth control rate is above 85%) | 5 (Level 5: growth control rate is above 85%) | 5 (Level 5: growth control rate is above 85%) | 4 (Level 4: growth control rate is greater than or equal to 60% and less than 85%) | 5 (Level 5: growth control rate is above 85%) | – | – | – | – | – | – | – |
| CCCCCCOC(=O)[C@@H](C)O/N=C/c1cc(-n2c(=O)cc(C(F)(F)F)n(C)c2=O)c(F)cc1Cl [204(R)] | 5 (Level 5: growth control rate is above 85%) | 5 (Level 5: growth control rate is above 85%) | 5 (Level 5: growth control rate is above 85%) | 5 (Level 5: growth control rate is above 85%) | 5 (Level 5: growth control rate is above 85%) | 5 (Level 5: growth control rate is above 85%) | – | – | – | – | – | – | – |
